The test system of data set [1] is rats and monkeys. The conditions noted are these: rats; cited from earlier work.
Data set [2] concerns the target T1, norepinephrine transporter (Homo sapiens, UniProt P23975). Put plainly: NE uptake: displacement of norephinephrine ligands in vitro (methods of Galli et al.). The format is binding. The conditions noted are these: NE Uptake, Uptake Profile (IC50, nM).
Data set [3] concerns the target T2, serotonin transporter (Homo sapiens, UniProt P31645). Put plainly: 5-HT uptake: displacement of serotonin ligands in vitro (methods of Gu et al.). The conditions noted are these: displacement of serotonin ligands in vitro; read-out: 5-HT Uptake, Uptake Profile (IC50). It is filed as binding.
The target in data set [4] is T1, norepinephrine transporter. Put plainly: Functional activity, norephinephrine uptake inhibition in MDCK cell lines. The format is cell-based.
The subject of data set [5] is mouse. Put plainly: Acute toxicity assessment, maximum tolerated dose i.v., mouse. The format is in vivo. The conditions noted are these: mice, 10 mg/kg i.v. Here is the method: (§1) An in vivo evaluation was carried out to determine the maximum tolerated dose of numerous test compounds in two animal species (mouse and rat). The compounds were administered i.v. and the animals were then observed for 72 h. Compounds 114, 115, 113, 110, 124, 125, 129, and 130 were solubilized in 5% dextrose (w/v)/polyethylene glycol 400 (4:1 v/v). Compounds 126, 127, 131, and 132 were solubilized in 10% hydroxypropyl-β-cyclodextrin (w/v).

The test system of data set [6] is rat. Put plainly: Acute toxicity assessment, maximum tolerated dose i.v., rat. The format is in vivo. The conditions noted are these: rats, 10 mg/kg i.v. Here is the method:
as §1

Data set [7] concerns Sprague-Dawley rats. Put plainly: Spontaneous locomotor activity in rats (Example 141). The format is in vivo, rat. Here is the method: The effect of 124 and 126 on spontaneous locomotor activity in rats was determined according to the procedures outlined by Silverman et al. (Motor Activity. In “Animal behavior in the laboratory”, Chapman and Hall eds, London, p. 79-92, 1978) and Boissier et al. (Arch. Int. Pharmacodyn. 1965, 158, 212. )
Test items and test item vehicles were administered to male Sprague-Dawley rats (n=10) as a single i.p. dose (vehicle A=10% hydroxypropyl-β-cyclodextrin in water; vehicle B=4:1 5% aqueous dextrose:PEG 400). […] Locomotor activity was determined during 20 minute periods using video image analyzers. Images recorded with video cameras were digitalized and displacements of the center of gravity of the digital image spot were tracked and analyzed. When the speed of displacement of the center of gravity of the spot was below 4.26 cm/sec, the movement was considered as inactivity. When this speed was between 4.26 and 6.75 cm/sec, the movement was considered as a small movement. When this speed was above 6.75 cm/sec, the movement was considered as a large movement. The number of occurrences, distance and duration of fast and slow movements, number of occurrences and duration of periods of inactivity and number of rears were measured.

In data set [8] the test system is rats. It is filed as in vivo, rat. The conditions noted are these: for % variation of the total duration of immobility: 1 h before test. Here is the method: The animals were preconditioned in a pretest session, where the rats were individually forced to swim inside a vertical plexiglass cylinder containing water maintained at 19-20° C. […] Twenty four hours later, the compounds were administered intraperitoneal to the animals. One hour after administration of the test compound, animals were put back into the cylinder containing water. The total duration of immobility was measured during the last 4 minutes of a 6 minute test.
The results are expressed as the percentage of variation of the total duration of immobility calculated from the mean value of the vehicle-treated group (% variation=[(immobility duration of vehicle-immobility duration of test compound)/(immobility duration of vehicle)]×100%).

The subject of data set [9] is rats. Put plainly: Behavioral despair assay in rats, 3 i.p. injections (Example 143). The conditions noted are these: for % variation of the total duration of immobility: 3 i.p. injections 24 h, 5 h and 1 h before test. The format is in vivo, rat. The method in brief:
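Porsolt forced-swim test in rats: a 15 min pretest swim in 19–20 °C water, then 24 h later a 5 min test scoring total immobility. Compounds or vehicle were given as 3 i.p. injections at 24 h, 5 h and 1 h before the test. Values are % variation in immobility relative to the vehicle-group mean.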

Data set [10] deals with Sprague-Dawley rats. Nature of the data set: Spontaneous locomotor activity in rats, 1-24 hours (Example 223). The conditions noted are these: 10 mg/kg i.p. The format is in vivo, rat. The protocol: The effect of 124 and 126 on spontaneous locomotor activity in rats was determined according to the procedures outlined by Silverman et al. (Motor Activity. In “Animal behavior in the laboratory”, Chapman and Hall eds, London, p. 79-92, 1978) and Boissier et al. (Arch. Int. Pharmacodyn. 1965, 158, 212. ) Test items and test item vehicles were administered to male Sprague-Dawley rats (n=10) as a single i.p. dose. One, three, five, eight and twenty four hours following administration, rats were placed in a plastic box 30×30 cm in a room with low light intensity (maximum 50 lux). Locomotor activity was determined during 20 minute periods using video image analyzers. Images recorded with video cameras were digitalized and displacements of the center of gravity of the digital image spot were tracked and analyzed. When the speed of displacement of the center of gravity of the spot was below 4.26 cm/sec, the movement was considered as inactivity. When this speed was between 4.26 and 6.75 cm/sec, the movement was considered as a small movement. When this speed was above 6.75 cm/sec, the movement was considered as a large movement. The number of occurrences, distance and duration of fast and slow movements, number of occurrences and duration of periods of inactivity and number of rears were measured.

In data set [11] the target is DAT (Homo sapiens, UniProt Q01959). Nature of the data set: cell-based. Also noted: expressed in transfected cells. The conditions noted are these: hDAT cell line; read-out: DA Uptake, Functional Assays (antagonism, EC50).
Data set [12] concerns the target T2, serotonin transporter. Nature of the data set: Functional activity, serotonin uptake inhibition in human HEK-293 cell lines. Also noted: expressed in transfected cells; host or cells: HEK-293. The conditions noted are these: human HEK-293 cell lines; read-out: 5-HT Uptake, Functional Assays (antagonism, EC50). It is filed as cell-based.
Data set [13] concerns the target dopamine transporter (Homo sapiens, UniProt Q01959). Nature of the data set: DA uptake: displacement of dopamine ligands in vitro (methods of Gu et al.). The conditions noted are these: DA Uptake, Uptake Profile (IC50, nM), displacement of dopamine ligands in vitro.

Like-named read-outs stand apart in the source and are kept apart here.

T1 sequence (P23975 whole entry): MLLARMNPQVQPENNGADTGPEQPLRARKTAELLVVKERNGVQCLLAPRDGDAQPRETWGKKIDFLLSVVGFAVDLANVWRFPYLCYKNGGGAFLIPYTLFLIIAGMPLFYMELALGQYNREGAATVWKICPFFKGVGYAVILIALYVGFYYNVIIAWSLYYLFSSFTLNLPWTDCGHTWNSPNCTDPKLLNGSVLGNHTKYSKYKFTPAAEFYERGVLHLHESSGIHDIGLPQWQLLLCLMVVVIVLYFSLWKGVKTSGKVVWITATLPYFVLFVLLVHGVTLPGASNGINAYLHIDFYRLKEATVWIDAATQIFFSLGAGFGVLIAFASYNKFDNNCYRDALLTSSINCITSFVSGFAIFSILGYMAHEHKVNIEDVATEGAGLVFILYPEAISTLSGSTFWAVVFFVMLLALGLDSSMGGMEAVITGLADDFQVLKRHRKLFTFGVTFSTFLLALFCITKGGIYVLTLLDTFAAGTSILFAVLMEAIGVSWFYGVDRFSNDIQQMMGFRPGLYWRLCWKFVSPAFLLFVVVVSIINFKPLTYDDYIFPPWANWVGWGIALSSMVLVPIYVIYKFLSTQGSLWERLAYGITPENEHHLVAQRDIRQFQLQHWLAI
T2 sequence (P31645 whole entry): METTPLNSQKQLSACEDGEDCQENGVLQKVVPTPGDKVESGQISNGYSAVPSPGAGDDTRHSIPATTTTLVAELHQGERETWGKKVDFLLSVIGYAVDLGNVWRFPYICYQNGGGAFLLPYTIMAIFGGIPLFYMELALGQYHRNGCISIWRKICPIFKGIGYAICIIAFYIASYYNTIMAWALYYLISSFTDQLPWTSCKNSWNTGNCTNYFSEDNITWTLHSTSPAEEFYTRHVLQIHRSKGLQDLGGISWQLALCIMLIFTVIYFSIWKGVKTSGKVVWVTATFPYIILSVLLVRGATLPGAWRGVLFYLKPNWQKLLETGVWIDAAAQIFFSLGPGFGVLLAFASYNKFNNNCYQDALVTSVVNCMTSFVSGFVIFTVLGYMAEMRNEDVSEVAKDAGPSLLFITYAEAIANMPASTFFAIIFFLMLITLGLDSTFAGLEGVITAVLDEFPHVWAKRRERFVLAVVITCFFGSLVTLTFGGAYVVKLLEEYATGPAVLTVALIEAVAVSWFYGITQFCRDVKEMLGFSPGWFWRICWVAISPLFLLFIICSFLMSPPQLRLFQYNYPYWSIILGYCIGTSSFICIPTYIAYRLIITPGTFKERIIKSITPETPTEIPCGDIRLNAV
Chain of DAT (Q01959 whole entry): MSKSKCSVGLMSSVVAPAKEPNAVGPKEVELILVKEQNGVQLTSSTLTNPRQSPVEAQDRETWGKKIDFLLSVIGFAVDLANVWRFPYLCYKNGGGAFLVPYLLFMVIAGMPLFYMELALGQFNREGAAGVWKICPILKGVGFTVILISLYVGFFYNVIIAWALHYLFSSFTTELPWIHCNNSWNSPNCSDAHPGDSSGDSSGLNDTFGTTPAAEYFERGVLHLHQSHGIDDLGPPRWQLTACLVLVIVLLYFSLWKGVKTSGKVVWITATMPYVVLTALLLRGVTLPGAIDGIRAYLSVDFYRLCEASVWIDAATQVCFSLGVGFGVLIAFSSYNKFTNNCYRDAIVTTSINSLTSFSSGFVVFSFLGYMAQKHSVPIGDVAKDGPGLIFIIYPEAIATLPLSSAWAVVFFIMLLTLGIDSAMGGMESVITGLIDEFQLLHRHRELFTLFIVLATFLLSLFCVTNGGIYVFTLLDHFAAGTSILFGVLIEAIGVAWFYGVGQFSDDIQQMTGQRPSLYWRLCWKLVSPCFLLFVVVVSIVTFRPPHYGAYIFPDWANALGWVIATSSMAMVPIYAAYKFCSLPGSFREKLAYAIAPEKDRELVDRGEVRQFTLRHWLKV
Chain of dopamine transporter (Q01959 whole entry): as above

Consider `CNCCC(Oc1ccc(C(F)(F)F)cc1)c1ccccc1` (centres unmarked) [fluoxetine], for which the “effect on self-administration of cocaine” value in [1] is “decreased self-administration of cocaine”.

What is called IC50 is the point on the concentration scale where inhibition reaches its midpoint. In general, EC50 refers to the concentration giving half of the maximal effect. Consider `O[C@H](CN1CCC[C@@H](COc2ccc(C(F)(F)F)cc2)C1)C1(c2ccc(Cl)cc2)CCC1` [compound 126, 1R-1-[1-(4-Chloro-phenyl)-cyclobutyl]-2-[(3R)-3-(4-trifluoromethyl-phenoxymethyl)-piperidin-1-yl]-ethanol], for which the IC50 in data set [2] is less than 100 nM; in data set [3], less than 1000 nM; in data set [13], less than 10 nM. In addition, the figures for the EC50 in data set [4], in [11] and in [12] were less than 1000 nM, less than 10 nM and less than 1000 nM, respectively. Also, the “tolerability and mortality after 72 h” value in data set [5] and in data set [6] was “well tolerated” in each case. For the same compound, the “Small Movement Occurrences” value in data set [7] (5 mg/kg i.p.) is on record as 651.4 ± 141.2; in data set [7] (5 mg/kg i.p., 20 min) it was 711.6 ± 65.7 ^; in [7] (5 mg/kg i.p., 60 min), 563.5 ± 85.0 ^; in data set [7] (5 mg/kg i.p., 120 min), 717.4 ± 138.6; in data set [7] (10 mg/kg i.p., 20 min) it was 904.3 ± 110.8; in data set [7] (10 mg/kg i.p., 60 min), 1218.7 ± 178.9 ^. The “Small Movement Occurrences” value in data set [7] (10 mg/kg i.p., 120 min) is reported as 1358.1 ± 137.1 ^; in data set [10] (1 hour) it was 1357 ± 125^; in data set [10] (3 hours) it was 1610 ± 73 ^; in data set [10] (5 hours) it was 1575 ± 90 ^; in data set [10] (8 hours) it was 1489 ± 111^; in data set [10] (24 hours), 1544 ± 75 ^. Besides, the “Large Movement Occurrences” value is on record as 287.0 ± 34.4 ^ in [7] (5 mg/kg i.p., 20 min); 204.4 ± 36.3 ^ in [7] (5 mg/kg i.p., 60 min); 293.8 ± 68.9 ^ in data set [7] (5 mg/kg i.p., 120 min); 270.5 ± 73.8 ^ in data set [7] (5 mg/kg i.p., 180 min); 364.7 ± 52.7 ^ in data set [7] (10 mg/kg i.p., 20 min); 644.5 ± 127.3 in data set [7] (10 mg/kg i.p., 60 min). Also, the “Large Movement Occurrences” value in data set [7] (10 mg/kg i.p., 120 min) was 752.7 ± 129.4; in data set [10] (1 hour) it was 774 ± 110 ^; in data set [10] (3 hours), 956 ± 93^; in data set [10] (5 hours) it was 866 ± 117 ^; in data set [10] (8 hours) it was 746 ± 95^; in [10] (24 hours), 1012 ± 81 ^. Further, the “locomotor activity compared to control animals” value in data set [7] (dosed at 5 and 10 mg/kg i.p.) is on record as “significant increase”; in data set [10] (at all times tested (1, 3, 5, 8, 24 hours)) it was “significant increase”. Further, the “effectiveness (statistically significant variation >30%)” value in data set [8] (2.5 mg/kg), in data set [9] (1.0 mg/kg) and in data set [9] (2.5 mg/kg) was “effective” each time. Besides, the “% variation of the total duration of immobility” value in [8] (2.5 mg/kg i.p.) turned out to be 45%; in data set [8] (10 mg/kg i.p.), 99%; in [9] (0.25 mg/kg), 9%; in data set [9] (0.75 mg/kg), 47%; in [9] (1.0 mg/kg), 58%; in data set [9] (2.5 mg/kg), 76%.

These data come from patent US7294637B2 (Sepracor, Inc., priority 2000, dated 2007).
